# Experimental data reported in ChEMBL document CHEMBL2440027, “Further SAR studies on bicyclic basic merbarone analogues as potent antiproliferative agents” (Bioorg Med Chem, 2013).
# What was measured:
# Type in all cases: functional
# NCI-H23 = test: Growth inhibition of human NCI-H23 cells assessed as cell growth at 10 uM after 48 hrs by sulforhodamine B assay relative to control; conditions: NCI-H23, 48 h, read-out: Activity
# HL-60(TB) [1] = test: Growth inhibition of human HL-60(TB) cells assessed as cell growth at 10 uM after 48 hrs by sulforhodamine B assay relative to control; conditions: HL-60, 48 h, read-out: Activity
# PC-3 = test: Growth inhibition of human PC3 cells assessed as cell growth at 10 uM after 48 hrs by sulforhodamine B assay relative to control; conditions: PC-3, 48 h, read-out: Activity
# HCT-116 = test: Growth inhibition of human HCT116 cells after 48 hrs by sulforhodamine B assay; conditions: HCT-116, 48 h
# T47D = test: Growth inhibition of human T47D cells after 48 hrs by sulforhodamine B assay
# NCI-H522 [2] = test: Growth inhibition of human NCI-H522 cells after 48 hrs by sulforhodamine B assay; conditions: NCI-H522, 48 h; for CC50: read-out: LC50 (the source's name)
# NCI-H522 [3] = test: Growth inhibition of human NCI-H522 cells assessed as cell growth at 10 uM after 48 hrs by sulforhodamine B assay relative to control; conditions: NCI-H522, 48 h, read-out: Activity
# SN12C = test: Growth inhibition of human SN12C cells after 48 hrs by sulforhodamine B assay; conditions: for CC50: read-out: LC50 (the source's name)
# Malme-3M = test: Growth inhibition of human MALME-3M cells assessed as cell growth at 10 uM after 48 hrs by sulforhodamine B assay relative to control; conditions: read-out: Activity
# SNB-75 = test: Growth inhibition of human SNB75 cells assessed as cell growth at 10 uM after 48 hrs by sulforhodamine B assay relative to control; conditions: SNB-75, 48 h, read-out: Activity
# HOP-92 = test: Growth inhibition of human HOP92 cells after 48 hrs by sulforhodamine B assay; conditions: HOP-92, 48 h
# 786-0 = test: Growth inhibition of human 786-0 cells assessed as cell growth at 10 uM after 48 hrs by sulforhodamine B assay relative to control; conditions: 786-0, 48 h, read-out: Activity
# [4] = Growth inhibition of human EKVX cells assessed as cell growth at 10 uM after 48 hrs by sulforhodamine B assay relative to control; conditions: read-out: Activity
# RXF 393 = test: Growth inhibition of human RXF393 cells assessed as cell growth at 10 uM after 48 hrs by sulforhodamine B assay relative to control; conditions: RXF 393, 48 h, read-out: Activity
# HT-29 = test: Growth inhibition of human HT-29 cells assessed as cell growth at 10 uM after 48 hrs by sulforhodamine B assay relative to control; conditions: HT-29, 48 h, read-out: Activity
# SF-268 = test: Growth inhibition of human SF268 cells after 48 hrs by sulforhodamine B assay; conditions: SF-268, 48 h
# SR = test: Growth inhibition of human SR cells after 48 hrs by sulforhodamine B assay
# SF-539 = test: Growth inhibition of human SF539 cells after 48 hrs by sulforhodamine B assay; conditions: SF-539, 48 h; for CC50: read-out: LC50 (the source's name)
# K562 = test: Growth inhibition of human K562 cells assessed as cell growth at 10 uM after 48 hrs by sulforhodamine B assay relative to control; conditions: K562, 48 h, read-out: Activity
# MCF7 = test: Growth inhibition of human MCF7 cells after 48 hrs by sulforhodamine B assay; conditions: MCF7, 48 h; for CC50: read-out: LC50 (the source's name)
# SF-295 [5] = test: Growth inhibition of human SF295 cells after 48 hrs by sulforhodamine B assay; conditions: SF-295, 48 h; for CC50: read-out: LC50 (the source's name)
# HL-60(TB) [6] = test: Growth inhibition of human HL-60(TB) cells after 48 hrs by sulforhodamine B assay; conditions: HL-60, 48 h
# COLO 205 = test: Growth inhibition of human COLO205 cells after 48 hrs by sulforhodamine B assay; conditions: COLO 205, 48 h; for CC50: read-out: LC50 (the source's name)
# ACHN = test: Growth inhibition of human ACHN cells assessed as cell growth at 10 uM after 48 hrs by sulforhodamine B assay relative to control; conditions: read-out: Activity
# SNB-19 = test: Growth inhibition of human SNB19 cells after 48 hrs by sulforhodamine B assay; conditions: SNB-19, 48 h; for CC50: read-out: LC50 (the source's name)
# SF-295 [7] = test: Growth inhibition of human SF295 cells assessed as cell growth at 10 uM after 48 hrs by sulforhodamine B assay relative to control; conditions: SF-295, 48 h, read-out: Activity
# SK-MEL-28 = test: Growth inhibition of human SK-MEL-28 cells after 48 hrs by sulforhodamine B assay; conditions: SK-MEL-28, 48 h; for CC50: read-out: LC50 (the source's name)
# NCI-H322M = test: Growth inhibition of human NCI-H322M cells after 48 hrs by sulforhodamine B assay; conditions: for CC50: read-out: LC50 (the source's name)
# [8] = Growth inhibition of human NCI-ADR-RES cells assessed as cell growth at 10 uM after 48 hrs by sulforhodamine B assay relative to control; conditions: read-out: Activity
# SK-OV-3 = test: Growth inhibition of human SKOV3 cells assessed as cell growth at 10 uM after 48 hrs by sulforhodamine B assay relative to control; conditions: SK-OV-3, 48 h, read-out: Activity
# UO-31 = test: Growth inhibition of human UO31 cells after 48 hrs by sulforhodamine B assay; conditions: UO-31, 48 h
# NCI-H226 = test: Growth inhibition of human NCI-H226 cells after 48 hrs by sulforhodamine B assay; conditions: NCI-H226, 48 h
# SK-MEL-5 = test: Growth inhibition of human SK-MEL-5 cells after 48 hrs by sulforhodamine B assay; conditions: SK-MEL-5, 48 h
# M14 = test: Growth inhibition of human M14 cells after 48 hrs by sulforhodamine B assay; conditions: M14, 48 h; for CC50: read-out: LC50 (the source's name)
smiles,measurement,setting,value
CN(C)CCNc1nc2c(c(=N)n1-c1ccccc1)c(=S)n(-c1ccccc1)c(=S)n2-c1ccccc1,growth at 10 µM,NCI-H23,67.6%
same,growth at 10 µM,HL-60(TB) [1],36.6%
same,growth at 10 µM,PC-3,31%
same,GI50,HCT-116,2.7 µM
same,TGI,HCT-116,16 µM
same,GI50,T47D,2.1 µM
same,LC50,T47D,30.5 µM
same,TGI,T47D,5.4 µM
same,GI50,NCI-H522 [2],2.1 µM
same,TGI,NCI-H522 [2],5.4 µM
same,CC50,NCI-H522 [2],27.6 µM
same,growth at 10 µM,NCI-H522 [3],3.16%
same,GI50,SN12C,6.2 µM
same,TGI,SN12C,19.9 µM
same,CC50,SN12C,48 µM
same,growth at 10 µM,Malme-3M,-89.5%
same,growth at 10 µM,SNB-75,79%
same,GI50,HOP-92,1.8 µM
same,LC50 (concentration killing 50% of cells),HOP-92,60.1 µM
same,TGI,HOP-92,10.3 µM
same,growth at 10 µM,786-0,-83.5%
same,growth at 10 µM,[4],39.8%
same,growth at 10 µM,RXF 393,-39.1%
same,growth at 10 µM,HT-29,-35.7%
same,GI50,SF-268,4.1 µM
same,LC50,SF-268,45.6 µM
same,TGI,SF-268,15.3 µM
same,GI50,SR,1.4 µM
same,LC50,SR,8.2 µM
same,TGI,SR,3.3 µM
same,GI50,SF-539,1.8 µM
same,TGI,SF-539,3.5 µM
same,CC50,SF-539,7 µM
same,growth at 10 µM,K562,-11.4%
same,GI50,MCF7,2.2 µM
same,TGI,MCF7,10.9 µM
same,CC50,MCF7,48.8 µM
same,GI50,SF-295 [5],2.9 µM
same,TGI,SF-295 [5],8.3 µM
same,CC50,SF-295 [5],51.1 µM
same,GI50,HL-60(TB) [6],1.5 µM
same,LC50,HL-60(TB) [6],7.1 µM
same,TGI,HL-60(TB) [6],3.3 µM
same,GI50,COLO 205,1.6 µM
same,TGI,COLO 205,3.8 µM
same,CC50,COLO 205,9.1 µM
same,growth at 10 µM,ACHN,28.3%
same,GI50,SNB-19,4.9 µM
same,TGI,SNB-19,19 µM
same,CC50,SNB-19,50 µM
same,growth at 10 µM,SF-295 [7],-61.5%
same,GI50,SK-MEL-28,0.6 µM
same,TGI,SK-MEL-28,2.1 µM
same,CC50,SK-MEL-28,5.8 µM
same,GI50,NCI-H322M,6.2 µM
same,TGI,NCI-H322M,20.7 µM
same,CC50,NCI-H322M,53.8 µM
same,growth at 10 µM,[8],58.8%
same,growth at 10 µM,SK-OV-3,76.3%
same,GI50,UO-31,1.6 µM
same,LC50,UO-31,9.6 µM
same,TGI,UO-31,3.9 µM
same,GI50,NCI-H226,11.6 µM
same,LC50,NCI-H226,59.5 µM
same,TGI,NCI-H226,26.3 µM
same,GI50,SK-MEL-5,1.6 µM
same,LC50,SK-MEL-5,6.1 µM
same,TGI,SK-MEL-5,3.1 µM
same,GI50,M14,1.8 µM
same,TGI,M14,4.3 µM
same,CC50,M14,89.1 µM
CCCCN(CCCC)CCCNc1nc2c(c(=N)n1-c1ccccc1)c(=S)n(-c1ccccc1)c(=S)n2-c1ccccc1,growth at 10 µM,NCI-H23,-56.3%
same,growth at 10 µM,HL-60(TB) [1],-74.8%
same,growth at 10 µM,PC-3,-70.8%
same,GI50,HCT-116,0.3 µM
same,TGI,HCT-116,1.1 µM
same,CC50,HCT-116; read-out: LC50 (the source's name),3.4 µM
same,GI50,T47D,0.2 µM
same,LC50,T47D,8.3 µM
same,TGI,T47D,0.5 µM
same,GI50,NCI-H522 [2],0.2 µM
same,TGI,NCI-H522 [2],1.3 µM
same,CC50,NCI-H522 [2],5.1 µM
same,growth at 10 µM,NCI-H522 [3],-54.8%
same,GI50,SN12C,1.2 µM
same,TGI,SN12C,2.4 µM
same,CC50,SN12C,4.9 µM
same,growth at 10 µM,Malme-3M,-91.5%
same,growth at 10 µM,SNB-75,-94.2%
same,GI50,HOP-92,0.2 µM
same,LC50 (concentration killing 50% of cells),HOP-92,3.5 µM
same,TGI,HOP-92,0.8 µM
same,growth at 10 µM,786-0,-100%
same,growth at 10 µM,[4],-74.2%
same,growth at 10 µM,RXF 393,-67.7%
same,growth at 10 µM,HT-29,-63.3%
same,GI50,SF-268,1 µM
same,LC50,SF-268,4.7 µM
same,TGI,SF-268,2.2 µM
same,GI50,SR,0.3 µM
same,LC50,SR,7 µM
same,TGI,SR,1.5 µM
same,GI50,SF-539,1.2 µM
same,TGI,SF-539,2.7 µM
same,CC50,SF-539,5.7 µM
same,growth at 10 µM,K562,-90.3%
same,GI50,MCF7,0.3 µM
same,TGI,MCF7,1.3 µM
same,CC50,MCF7,3.6 µM
same,GI50,SF-295 [5],1.2 µM
same,TGI,SF-295 [5],2.7 µM
same,CC50,SF-295 [5],5.8 µM
same,GI50,HL-60(TB) [6],0.2 µM
same,GI50,COLO 205,0.2 µM
same,TGI,COLO 205,1.4 µM
same,CC50,COLO 205,6 µM
same,growth at 10 µM,ACHN,-95.8%
same,GI50,SNB-19,1.2 µM
same,TGI,SNB-19,2.7 µM
same,CC50,SNB-19,5.8 µM
same,growth at 10 µM,SF-295 [7],-100%
same,GI50,SK-MEL-28,0.2 µM
same,TGI,SK-MEL-28,0.3 µM
same,CC50,SK-MEL-28,0.7 µM
same,GI50,NCI-H322M,1.4 µM
same,TGI,NCI-H322M,3.2 µM
same,CC50,NCI-H322M,7.4 µM
same,growth at 10 µM,[8],-71.1%
same,growth at 10 µM,SK-OV-3,-86.5%
same,GI50,UO-31,0.2 µM
same,LC50,UO-31,1.1 µM
same,TGI,UO-31,0.5 µM
same,GI50,NCI-H226,1.4 µM
same,LC50,NCI-H226,5.5 µM
same,TGI,NCI-H226,2.8 µM
same,GI50,SK-MEL-5,0.9 µM
same,LC50,SK-MEL-5,4.6 µM
same,TGI,SK-MEL-5,2.1 µM
same,GI50,M14,0.2 µM
same,TGI,M14,0.4 µM
same,CC50,M14,0.8 µM
